In US6518243B1, “Desleucyl glycopeptide antibiotics and methods of making same” (Trustees of Princeton University, priority 1999, dated 2003):

Columns and labels:
E. faecalis (CL 4877) = test: Zone of inhibition screen, 96 well agar array format; assay type: cell-based; parameters: scale not given here
How it was run: (§1)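 Read-out is antibacterial activity on agar laid out as a 96-well array; every compound went through all strains of the panel.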

E. faceium (ATCC 49624) = test: as above; assay type: cell-based, E. faecium;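 note: score 3 means fourfold and score 4 sixteenfold the reference zone size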
Description: The antibacterial activity of each of the compounds against the bacterial strains E. faceium (ATCC 49624), S. epidermidis (ATCC 12228), S. aureus (ATCC 29213), E. faecalis (CL 4877) and E. faecalis (ATCC 292121) was tested. Each of the compounds was screened in a 96 will agar array format.

S. aureus (ATCC 29213) = test: as above; assay type: cell-based; parameters: scale not given here; conditions: zone of inhibition relative to 1 mg/ml stock solution of p-chlorobiphenylvancomycin
How it was run: as §1

S aureus ATCC 29213 = test: MIC determination in BHI media, OD600; assay type: cell-based; conditions: BHI + 0.1% casamino acids, 18 hours at 37° C., ≧90% OD600 inhibition
Description: (§2) Logarithmically growing cells were diluted to approximately 5×10^5 CFU/ml and subjected to test compounds solubilized and serially diluted in DMSO. […] After 18 hours at 37° C., the OD600 was determined by reading the ninety-six well microtiter plates on a microplate reader. For a given concentration, an MIC determination was made if: […]

E. faecium ATCC 49624 = test: MIC determination in BHI media, OD600; assay type: cell-based; conditions: BHI + 0.1% casamino acids, 18 hours at 37° C., ≧90% OD600 inhibition
Description: as §2

S. Aureus ATCC 33591 = test: MIC determination in BHI media, OD600; assay type: cell-based; conditions: BHI + 0.1% casamino acids, 18 hours at 37° C., ≧90% OD600 inhibition
Description: as §2

[1] = tested on: S. epidermidis (ATCC 12228); test: Zone of inhibition screen, 96 well agar array format; assay type: cell-based; parameters: scale not given here
How it was run: as §1

[2] = zone of inhibition relative to 1 mg/ml stock solution of p-chlorobiphenylvancomycin
[3] = zone of inhibition relative to 1 mg/ml p-chlorobiphenylvancomycin

Row | SMILES | zone score, E. faecalis CL 4877 (E. faecalis (CL 4877); [2]) | zone score, E. faecium ATCC 49624 (E. faceium (ATCC 49624); [2]) | zone score, S. aureus ATCC 29213 (S. aureus (ATCC 29213)) | also measured
1 | C[C@H]1O[C@H](O[C@H]2[C@H](Oc3c4cc5cc3Oc3ccc(cc3Cl)[C@@H](O)[C@@H](NC(=O)[C@@H](N)CCCNC(N)=O)C(=O)N[C@@H](CC(N)=O)C(=O)N[C@H]5C(=O)N[C@H]3C(=O)N[C@H](C(=O)N[C@@H](C(=O)O)c5cc(O)cc(O)c5-c5cc3ccc5O)[C@H](O)c3ccc(c(Cl)c3)O4)O[C@H](CO)[C@@H](O)[C@@H]2O)C[C@@](C)(NCc2ccc(-c3ccc(Cl)cc3)cc2)[C@H]1O [Compound 5] | 2 | 2 | – | –
2 | CC1OC(OC2C(Oc3c4cc5cc3Oc3ccc(cc3Cl)C(O)C3NC(=O)C(NC(=O)C5NC(=O)C(CC(N)=O)NC(=O)C(NC(=O)C(N)Cc5cccs5)C(O)c5ccc(c(Cl)c5)O4)c4ccc(O)c(c4)-c4c(O)cc(O)cc4C(C(=O)O)NC3=O)OC(CO)C(O)C2O)CC(C)(NCc2ccc(-c3ccc(Cl)cc3)cc2)C1O (stereo not drawn) [Compound 10] | – | 2 | 2 | –
3 | CC1OC(OC2C(Oc3c4cc5cc3Oc3ccc(cc3Cl)C(O)C3NC(=O)C(NC(=O)C5NC(=O)C(CC(N)=O)NC(=O)C(NC(=O)Cn5cccc(N)c5=O)C(O)c5ccc(c(Cl)c5)O4)c4ccc(O)c(c4)-c4c(O)cc(O)cc4C(C(=O)O)NC3=O)OC(CO)C(O)C2O)CC(C)(NCc2ccc(-c3ccc(Cl)cc3)cc2)C1O (stereo not drawn) [Compound 32] | 2 | 2 | 2 | –
4 | CC1OC(OC2C(Oc3c4cc5cc3Oc3ccc(cc3Cl)C(O)C3NC(=O)C(NC(=O)C5NC(=O)C(CC(N)=O)NC(=O)C(NC(=O)CN5CCN(CCN)CC5)C(O)c5ccc(c(Cl)c5)O4)c4ccc(O)c(c4)-c4c(O)cc(O)cc4C(C(=O)O)NC3=O)OC(CO)C(O)C2O)CC(C)(NCc2ccc(-c3ccc(Cl)cc3)cc2)C1O (stereo not drawn) [Compound 33] | 2 | 2 | 2 | –
5 | CC(O)C(N)C(=O)NC1C(=O)NC(CC(N)=O)C(=O)NC2C(=O)NC3C(=O)NC(C(=O)NC(C(=O)O)c4cc(O)cc(O)c4-c4cc3ccc4O)C(O)c3ccc(c(Cl)c3)Oc3cc2cc(c3OC2OC(CO)C(O)C(O)C2OC2CC(C)(NCc3ccc(-c4ccc(Cl)cc4)cc3)C(O)C(C)O2)Oc2ccc(cc2Cl)C1O (stereo not drawn) [Compound 43] | 2 | 2 | – | –
6 | CC1OC(OC2C(Oc3c4cc5cc3Oc3ccc(cc3Cl)C(O)C3NC(=O)C(NC(=O)C5NC(=O)C(CC(N)=O)NC(=O)C(NC(=O)CCN)C(O)c5ccc(c(Cl)c5)O4)c4ccc(O)c(c4)-c4c(O)cc(O)cc4C(C(=O)O)NC3=O)OC(CO)C(O)C2O)CC(C)(NCc2ccc(-c3ccc(Cl)cc3)cc2)C1O (stereo not drawn) [Compound 47] | 2 | 2 | – | –
7 | CSCC(N)C(=O)NC1C(=O)NC(CC(N)=O)C(=O)NC2C(=O)NC3C(=O)NC(C(=O)NC(C(=O)O)c4cc(O)cc(O)c4-c4cc3ccc4O)C(O)c3ccc(c(Cl)c3)Oc3cc2cc(c3OC2OC(CO)C(O)C(O)C2OC2CC(C)(NCc3ccc(-c4ccc(Cl)cc4)cc3)C(O)C(C)O2)Oc2ccc(cc2Cl)C1O (stereo not drawn) [Compound 50] | 2 | 2 | – | –
8 | CC1OC(OC2C(Oc3c4cc5cc3Oc3ccc(cc3Cl)C(O)C3NC(=O)C(NC(=O)C5NC(=O)C(CC(N)=O)NC(=O)C(NC(=O)CNC(=O)CNC(=O)CN)C(O)c5ccc(c(Cl)c5)O4)c4ccc(O)c(c4)-c4c(O)cc(O)cc4C(C(=O)O)NC3=O)OC(CO)C(O)C2O)CC(C)(NCc2ccc(-c3ccc(Cl)cc3)cc2)C1O (stereo not drawn) [Compound 67] | – | – | 2 | MIC S. aureus ATCC 29213 (S aureus ATCC 29213): 0.78 µg/mL; MIC E. faecium ATCC 49624 (E. faecium ATCC 49624): 0.78 µg/mL; MIC S. aureus ATCC 33591 (S. Aureus ATCC 33591): 0.78 µg/mL; zone score, S. epidermidis ATCC 12228 [1, 2]: 2
9 | CC(=O)NCCCCC(N)C(=O)NC1C(=O)NC(CC(N)=O)C(=O)NC2C(=O)NC3C(=O)NC(C(=O)NC(C(=O)O)c4cc(O)cc(O)c4-c4cc3ccc4O)C(O)c3ccc(c(Cl)c3)Oc3cc2cc(c3OC2OC(CO)C(O)C(O)C2OC2CC(C)(NCc3ccc(-c4ccc(Cl)cc4)cc3)C(O)C(C)O2)Oc2ccc(cc2Cl)C1O (stereo not drawn) [Compound 76] | – | 2 | – | zone score, S. epidermidis ATCC 12228 [1, 2]: 2
10 | CC1OC(OC2C(Oc3c4cc5cc3Oc3ccc(cc3Cl)C(O)C3NC(=O)C(NC(=O)C5NC(=O)C(CC(N)=O)NC(=O)C(NC(=O)C(N)CCCC[N+](C)(C)C)C(O)c5ccc(c(Cl)c5)O4)c4ccc(O)c(c4)-c4c(O)cc(O)cc4C(C(=O)O)NC3=O)OC(CO)C(O)C2O)CC(C)(NCc2ccc(-c3ccc(Cl)cc3)cc2)C1O.[Cl-] (stereo not drawn) [Compound 80] | – | 2 | 2 | –
11 | CC1OC(OC2C(Oc3c4cc5cc3Oc3ccc(cc3Cl)C(O)C3NC(=O)C(NC(=O)C5NC(=O)C(CC(N)=O)NC(=O)C(NC(=O)C(CC[S+](C)[O-])NC(=O)OC(C)(C)C)C(O)c5ccc(c(Cl)c5)O4)c4ccc(O)c(c4)-c4c(O)cc(O)cc4C(C(=O)O)NC3=O)OC(CO)C(O)C2O)CC(C)(NCc2ccc(-c3ccc(Cl)cc3)cc2)C1O (stereo not drawn) [Compound 142] | 2 | 2 | 2 | –
12 | CC1OC(OC2C(Oc3c4cc5cc3Oc3ccc(cc3Cl)C(O)C3NC(=O)C(NC(=O)C5NC(=O)C(CC(N)=O)NC(=O)C(NC(=O)CC(O)C[N+](C)(C)C)C(O)c5ccc(c(Cl)c5)O4)c4ccc(O)c(c4)-c4c(O)cc(O)cc4C(C(=O)O)NC3=O)OC(CO)C(O)C2O)CC(C)(NCc2ccc(-c3ccc(Cl)cc3)cc2)C1O (stereo not drawn) [Compound 149] | 2 | 2 | – | –
13 | CC1OC(OC2C(Oc3c4cc5cc3Oc3ccc(cc3Cl)C(O)C3NC(=O)C(NC(=O)C5NC(=O)C(CC(N)=O)NC(=O)C(NC(=O)C(N)CCCNC(=N)N)C(O)c5ccc(c(Cl)c5)O4)c4ccc(O)c(c4)-c4c(O)cc(O)cc4C(C(=O)O)NC3=O)OC(CO)C(O)C2O)CC(C)(NCc2ccc(-c3ccc(Cl)cc3)cc2)C1O (stereo not drawn) [Compound 217] | – | – | – | zone score, E. faecalis CL 4877 (E. faecalis (CL 4877); [3]): 2; zone score, E. faecium ATCC 49624 (E. faceium (ATCC 49624); [3]): 2
14 | CC(N)C(=O)NC1C(=O)NC(CC(N)=O)C(=O)NC2C(=O)NC3C(=O)NC(C(=O)NC(C(=O)O)c4cc(O)cc(O)c4-c4cc3ccc4O)C(O)c3ccc(c(Cl)c3)Oc3cc2cc(c3OC2OC(CO)C(O)C(O)C2OC2CC(C)(NCc3ccc(-c4ccc(Cl)cc4)cc3)C(O)C(C)O2)Oc2ccc(cc2Cl)C1O (stereo not drawn) [Compound 220] | – | – | – | zone score, E. faecium ATCC 49624 (E. faceium (ATCC 49624); [3]): 2
15 | CC1OC(OC2C(Oc3c4cc5cc3Oc3ccc(cc3Cl)C(O)C3NC(=O)C(NC(=O)C5NC(=O)C(CC(N)=O)NC(=O)C(NC(=O)CCS(=O)(=O)c5ccccc5)C(O)c5ccc(c(Cl)c5)O4)c4ccc(O)c(c4)-c4c(O)cc(O)cc4C(C(=O)O)NC3=O)OC(CO)C(O)C2O)CC(C)(NCc2ccc(-c3ccc(Cl)cc3)cc2)C1O (stereo not drawn) [Compound 246] | – | – | – | zone score, E. faecium ATCC 49624 (E. faceium (ATCC 49624); [3]): 2
16 | CC(=O)c1ccc(C(=O)NC2C(=O)NC(CC(N)=O)C(=O)NC3C(=O)NC4C(=O)NC(C(=O)NC(C(=O)O)c5cc(O)cc(O)c5-c5cc4ccc5O)C(O)c4ccc(c(Cl)c4)Oc4cc3cc(c4OC3OC(CO)C(O)C(O)C3OC3CC(C)(NCc4ccc(-c5ccc(Cl)cc5)cc4)C(O)C(C)O3)Oc3ccc(cc3Cl)C2O)cc1 (stereo not drawn) [Compound 267] | – | – | – | zone score, S. epidermidis ATCC 12228 [1, 3]: 2; zone score, E. faecium ATCC 49624 (E. faceium (ATCC 49624); [3]): 2
